Here are results for 7 compounds from patent publication US9301923B2, “Lipids, lipid compositions, and methods of using them” (NOVARTIS AG, priority 2009, dated 2016).

Data set [1] in a line: Particle size and PDI by dynamic light scattering (Malvern Zetasizer). The data set is classed as physicochemical. The gist of the method:
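Nanoparticles diluted in PBS to a count rate of about 200-400 kcts and measured by dynamic light scattering; size given as intensity-weighted average diameter, with polydispersity index from the same measurement.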

Data set [2] relates to Factor VII. Description: Factor VII activity assay, in vivo liver delivery of FVII siRNA LNP. On the set-up: species or system mouse. To be noted: for FVII inhib %: ~48 h. The gist of the method:
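Female CD-1 mice (~25 g) given a single i.v. tail-vein dose of FVII siRNA in LNPs (cationic, stealth, neutral lipids), dosed as mg siRNA/kg. Plasma collected ~48 h post-injection; FVII activity read against a standard curve from pooled vehicle-control plasma.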

Data set [3] can be described thus: pKa of the lipid by TNS fluorescence. The data set is classed as physicochemical. The gist of the method:
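Lipid dissolved in ethanol (2 mM stock) and measured with TNS across eight buffers of differing pH, in water at standard temperature and pressure. Normalized fluorescence intensity plotted against pH and points joined by a smooth line to derive pKa, precise to about 0.2 units.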

[4] abbreviates: lipid/DSPC/CHOL/AVANTI 880150P 50/28/18/4, N/P 3.43.
Setting [5] is: lipid/no neutral lipid/CHOL/AVANTI 880150P 50/0/46/4, N/P 3.43.
[6] abbreviates: dose 3 mg/kg siRNA i.v., lipid/DSPC/CHOL/AVANTI 880150P 50/28/18/4, N/P 3.43.
The mark [7] stands for this setting: dose 3 mg/kg siRNA i.v., lipid/no neutral lipid/CHOL/AVANTI 880150P 50/0/46/4, N/P 3.43.
[8] abbreviates: lipid/no neutral lipid/CHOL/GM-020 NOF 60/0/36/4, N/P 3.
Setting [9] is: dose 1 mg/kg siRNA i.v., lipid/no neutral lipid/CHOL/GM-020 NOF 60/0/36/4, N/P 3.

Read-outs that look alike come from different tables or passages of the source.

`CCCCC/C=C\C/C=C\CCCCCCCCOCC(CN1CCCCC1)OCCOCCNC(=O)O[C@H]1CC[C@@]2(C)C(=CCC3C2CC[C@@]2(C)C3CC[C@@H]2[C@H](C)CCCC(C)C)C1` (some centres unmarked) [E0054]: the figures for the “Final size (nm)” value in data set [1] (setting [4]) and in data set [1] (setting [5]) were 103 nm and 96 nm, respectively. Further, the PDI came to 0.2 in data set [1] (setting [4]) and 0.13 in data set [1] (setting [5]). Moreover, the FVII inhib % in data set [2] (dose 1 mg/kg siRNA i.v., lipid/DSPC/CHOL/AVANTI 880150P 50/28/18/4, N/P 3.43) is on record as 57.5%; in data set [2] (dose 1 mg/kg siRNA i.v., lipid/no neutral lipid/CHOL/AVANTI 880150P 50/0/46/4, N/P 3.43), 63%; in data set [2] (setting [6]) it was 97.8%; in data set [2] (setting [7]), 98.9%. Besides, the pKa in data set [3] (pKa) amounted to 6.58.
In the case of `CCCCC/C=C\C/C=C\CCCCCCCCOCC(CN1CCCC1C)OCCOCCOCCO[C@H]1CC[C@@]2(C)C(=CC[C@H]3[C@@H]4CC[C@H]([C@H](C)CCCC(C)C)[C@@]4(C)CC[C@@H]32)C1` (some centres unmarked) [E0082], in data set [1] (setting [8]), the “Final size (nm)” value was 105.1 nm and the PDI was 0.303. Moreover, the FVII inhib % in data set [2] (setting [9]) is recorded as 49.7%. In data set [3] (pKa), the pKa stood at 6.81.
On the same counts, the results for `CCCCC/C=C\C/C=C\CCCCCCCCCCOCC(CN1CCCCC1)OCCO[C@H]1CC[C@@]2(C)C(=CC[C@H]3[C@@H]4CC[C@H]([C@H](C)CCCC(C)C)[C@@]4(C)CC[C@@H]32)C1` (some centres unmarked) [E0069] are 113.4 nm, 0.199, 29% and 6.07.
Take `CCCCC/C=C\C/C=C\CCCCCCCCOCC(CN1CCSCC1)OCCOCCO[C@H]1CC[C@@]2(C)C(=CCC3C2CC[C@@]2(C)C3CC[C@@H]2[C@H](C)CCCC(C)C)C1` (some centres unmarked) [E0031]: the “Final size (nm)” value in data set [1] (setting [4]) came out at 108 nm; in data set [1] (setting [5]), 65 nm. The PDI was determined as 0.23 in data set [1] (setting [4]) and 0.11 in data set [1] (setting [5]). In addition, the FVII inhib % came out at 36.7% in data set [2] (setting [6]) and 27.1% in data set [2] (setting [7]). In data set [3] (pKa), this compound returned a pKa of 4.8.
As for `CCCCC/C=C\C/C=C\CCCCCCCCCCOCC(CN1CCOCC1)OCCO[C@H]1CC[C@@]2(C)C(=CC[C@H]3[C@@H]4CC[C@H]([C@H](C)CCCC(C)C)[C@@]4(C)CC[C@@H]32)C1` (some centres unmarked) [E0068], in data set [1] (setting [8]), the “Final size (nm)” value amounted to 174.0 nm and the PDI is given as 0.041. The same compound showed an FVII inhib % in data set [2] (setting [9]) of 28.6%. Moreover, in data set [3] (pKa), the pKa was 4.82.
As for `CCCCC/C=C\C/C=C\CCCCCCCCOCC(CN1CCC(O[Si](C)(C)C(C)(C)C)C1)OCCOCCO[C@H]1CC[C@@]2(C)C(=CC[C@H]3[C@@H]4CC[C@H]([C@H](C)CCCC(C)C)[C@@]4(C)CC[C@@H]32)C1` (some centres unmarked) [E0042], the results for the “Final size (nm)” value in data set [1] (setting [4]) and in data set [1] (setting [5]) were 83 nm and 73 nm, respectively. The results for the PDI in data set [1] (setting [4]) and in data set [1] (setting [5]) were 0.11 and 0.19, respectively. For the same compound, the results for the FVII inhib % in data set [2] (setting [6]) and in data set [2] (setting [7]) were 49.1% and 84.5%, respectively. The pKa in data set [3] (aqueous buffer series with fluorescent probe TNS, probe TNS, pKa of the cationic lipid, read-out: pKa) came to 6.7.
Consider `CCCCC/C=C\C/C=C\CCCCCCCCOCC(CN1CCCCC1)OCCCCO[C@H]1CC[C@@]2(C)C(=CCC3C2CC[C@@]2(C)C3CC[C@@H]2[C@H](C)CCCC(C)C)C1` (some centres unmarked) [E0027], for which the “Final size (nm)” value was determined as 146 nm in data set [1] (setting [4]) and 65 nm in data set [1] (setting [5]). Further, the PDI in data set [1] (setting [4]) was 0.311; in data set [1] (setting [5]), 0.15. The FVII inhib % amounted to 36.3% in data set [2] (setting [6]) and 30.3% in data set [2] (setting [7]). Also, the “in vivo Factor VII inhibition” value in data set [2] (formulation containing the cationic lipid, RNAi construct specific to Factor VII, liver) was 30.3%. For the same compound, the pKa is 5.71 in data set [3] and 5.7 in data set [3] (pKa).
